Results on five molecules are retold here after patent US5747235A, “Silver halide light sensitive emulsion layer having enhanced photographic sensitivity” (Eastman Kodak Company, priority 1996, dated 1998).

Structures can show the parent of a compound that is named as a salt.

A short description of assay [1]: Example 4: photographic speed and fog, 365 nm exposure, blue dyed emulsion T-2. The arrangement: Fog: unit not given here. Particulars: for Fog / S365: dye I 0.91 x10^-3; for S365: dyed control=100; for fog change: Table IV. The procedure:
(§1) For photographic evaluation, each of the coating strips was exposed for 0.1 sec to a 365 nm emission line of a Hg lamp filtered through a Kodak Wratten filter number 18A and a step wedge ranging in density from 0 to 4 density units in 0.2 density steps. The exposed film strips were developed for 6 min in Kodak Rapid X-ray Developer (KRX). S365, relative sensitivity at 365 nm, was evaluated at a density of 0.2 units above fog.
(§2) An AgBrI tabular silver halide emulsion (Emulsion T-2) was prepared containing 4.05% total I distributed such that the central portion of the emulsion grains contained 1.5% I and the perimeter area contained substantially higher I, as described by Chang et. al., U.S. Pat. No. 5,314,793. […] This emulsion was precipitated using deionized gelatin. The emulsion was sulfur sensitized by adding 8.5×10^-6 mole 1,3-dicarboxymethyl-1,3-dimethyl-2-thiourea /mole Ag at 40° C.; the temperature was then raised to 60° C. at a rate of 5° C./3 min and the emulsions held for 20 min before cooling to 40° C. The chemically sensitized emulsion was then used to prepare coatings containing the fragmentable two-electron donor compounds. All of the experimental coating variations in Table III contained the hydroxybenzene 2,4-disulfocatechol (HB3) at a concentration of 13 mmole/ mole Ag, added to the melt before the addition of any further addenda. Where present, the blue sensitizing dye D-I or the red sensitizing dye D-II were added from methanol solution to the emulsion at 40° C. after the chemical sensitization and disulfocatechol addition. The fragmentable two-electron donor compounds were added to the emulsion at 40° C. and the coatings were prepared and tested as described in Example 1, except that the additional gelatin used to prepare the coatings described in Table III was deionized gelatin.
The chemically sensitized AgBrI tabular emulsion T-2 as described in Example 3 was used to prepare the experimental coating variations listed in Table IV, comparing various structurally related fragmentable two-electron donating compounds varying in first oxidation potential E1. The blue sensitizing dye D-I was added from methanol solution to the emulsion at 40° C. after the chemical sensitization. The fragmentable two-electron donating compounds were then added to the emulsion and coatings prepared and tested as described in Example 3.

Assay [2] in a line: Example 11: photographic sensitivity and fog, color format, blue sensitized emulsion T-2. Particulars: for Photographic Sensitivity SWR2B: control=100. The procedure: The AgBrI tabular silver halide emulsion T-2 from Example 3 was optimally chemically and spectrally sensitized by adding NaSCN, 1.07 mmole of the blue sensitizing dye D-I per mole of silver, Na3 Au(S2 O3)2 ·2H2 O, Na2 S2 O3 ·5H2 O, and a benzothiazolium finish modifier and then subjecting the emulsion to a heat cycle to 65° C. The hydroxybenzene, 2,4-disulfocatechcol (HB3) at a concentration of 13×10^-3 mole/mole Ag was added to the emulsion melt before the start of the chemical sensitization procedure. This chemically sensitized emulsion was then used to prepare the experimental coating variations given in Table X. For all the variations in Table X, the antifoggant and stabilizer tetraazaindene (TAI) was added to the emulsion melt in an amount of 1.75 g/mole Ag before any further addenda. The fragmentable two-electron donors S-3, S-9, S-6, or S-8 were then added to the emulsion melt.
The melts were prepared for coating by adding additional water, deionized gelatin and coating surfactants. Coatings were prepared by combining the emulsion melts with a melt containing deionized gelatin and an aqueous dispersion of the cyan-forming color coupler CC-1 and coating the resulting mixture on acetate support. The final coatings contained Ag at 0.81 g/m^2, coupler at 1.61 g/m^2, and gelatin at 3.23 g/m^2. The coatings were overcoated with a protective layer containing gelatin at 1.08 g/m^2, coating surfactants, and a bisvinylsulfonylmethyl ether as a gelatin hardening agent. The structure of the color coupler CC-1 is given below: [drawing 120]
For photographic evaluation, each of the coating strips was exposed for 0.01 sec to a 3000K color temperature tungsten lamp filtered to give an effective color temperature of 5500K and further filtered through a Kodak Wratten filter number 2B, and a step wedge ranging in density from 0 to 4 density units in 0.20 density steps. This exposure gives light absorbed mainly by the blue sensitizing dye. The exposed film strips were developed for 31/4 minutes in Kodak C-41 color developer. SWR2B, relative sensitivity for this filtered exposure, was evaluated at a cyan density of 0.15 units above fog.
The AgBrI tabular emulsion T-2 as described in Example 3 was sensitized as described in Example 10 except that the hydroxybenzene HB3 was added at the completion of the chemical sensitization procedure. For all the variations in Table XI, the antifoggant and stabilizer tetraazaindene (TAI) was added to the emulsion melt in an amount of 1.75 g/mole Ag before any further addenda. The fragmentable two-electron donors S-12, S-14, S-13, or S-11 were then added to the emulsion melt. The melts were then coated and tested as described in Example 10.

Assay [3] is described as follows: Example 9: photographic speed and fog, 365 nm exposure, red dyed emulsion T-2. The following applies: for Fog / S365: dye II 0.86 x10^-3; for S365: undyed control=100, dyed control 62; for 365 nm sensitivity of dyed emulsion: dye D-II. How it is done: as §1, §2
The sulfur sensitized AgBrI tabular emulsion T-2 as described in Example 3 was used to prepare coatings of the fragmentable two-electron donors S-15, S-14, S-13, and S-11, as described in Table IX. All of the experimental coating variations in Table IX contained the hydroxybenzene, 2,4-disulfocatechcol (HB3) at a concentration of 13 mmole/mole Ag, added to the melt before any further addenda. Where present, the red sensitizing dye D-II was added from methanol solution to the emulsion at 40° C. after the chemical sensitization and disulfocatechol addition. The fragmentable two-electron donor compounds were then added to the emulsion and coatings prepared and tested as described in Example I, except that the additional gelatin used to prepare the coatings described in Table IX was deionized gelatin.

In the case of `CCSCCN(c1ccc(Cl)cc1)C(C)C(=O)O` (centres unmarked) [Compound S-12, N-(4-Chlorophenyl)-N-(2-thioethyl-ethyl)alanine sodium salt], the Fog in assay [1] (0.22 x10^-3 mole/mole Ag) is listed as 0.18; in assay [1] (0.44 x10^-3 mole/mole Ag), 0.21; in assay [1] (0.88 x10^-3 mole/mole Ag), 0.29; in assay [2] (0.22 x10^-3 mol/molAg) it was 0.11; in assay [2] (0.44 x10^-3 mol/molAg), 0.16. The S365 in assay [1] (0.22 x10^-3 mole/mole Ag) came to 145; in assay [1] (0.44 x10^-3 mole/mole Ag), 141; in assay [1] (0.88 x10^-3 mole/mole Ag), 138. For the same molecule, in assay [1], the “fog change” value is recorded as “modest increases in fog”. Further, the figures for the “Photographic Sensitivity SWR2B” value in assay [2] (0.22 x10^-3 mol/molAg) and in assay [2] (0.44 x10^-3 mol/molAg) were 191 and 204, respectively.

Turning to `CCSCCN(c1ccccc1)C(CC(=O)O)C(=O)O` (centres unmarked) [Compound S-14], the Fog was determined as 0.11 in assay [3] (0.007 x10^-3 mol/mol Ag), 0.14 in assay [3] (0.022 x10^-3 mol/mol Ag), 0.09 in assay [2] (0.22 x10^-3 mol/molAg) and 0.09 in assay [2] (0.44 x10^-3 mol/molAg). The S365 in assay [3] (0.007 x10^-3 mol/mol Ag) is on record as 89; in assay [3] (0.022 x10^-3 mol/mol Ag), 97. In assay [3], the “365 nm sensitivity of dyed emulsion” value is “restored to that of the undyed emulsion”. The “Photographic Sensitivity SWR2B” value in assay [2] (0.22 x10^-3 mol/molAg) came out at 170; in assay [2] (0.44 x10^-3 mol/molAg), 178.

Consider `CCSCCN(c1ccc(C(=O)O)cc1)C(C)C(=O)O` (centres unmarked) [Compound S-11], for which the Fog in assay [1] (0.22 x10^-3 mole/mole Ag) was found to be 0.05; in assay [1] (0.44 x10^-3 mole/mole Ag), 0.06; in assay [1] (0.88 x10^-3 mole/mole Ag) it was 0.07; in assay [3] (0.007 x10^-3 mol/mol Ag), 0.12; in assay [3] (0.022 x10^-3 mol/mol Ag) it was 0.13; in assay [2] (0.22 x10^-3 mol/molAg), 0.10. Moreover, in assay [2] (0.44 x10^-3 mol/molAg), the Fog is recorded as 0.09. The S365 is recorded as 145 in assay [1] (0.22 x10^-3 mole/mole Ag); 145 in assay [1] (0.44 x10^-3 mole/mole Ag); 145 in assay [1] (0.88 x10^-3 mole/mole Ag); 87 in assay [3] (0.007 x10^-3 mol/mol Ag); 100 in assay [3] (0.022 x10^-3 mol/mol Ag). The “365 nm sensitivity of dyed emulsion” value in assay [3] is listed as “restored to that of the undyed emulsion”. Further, the entries for the “Photographic Sensitivity SWR2B” value in assay [2] (0.22 x10^-3 mol/molAg) and in assay [2] (0.44 x10^-3 mol/molAg) were 166 and 178, respectively.

On to `CCSCCN(c1ccccc1)C(C)C(=O)O` (centres unmarked) [Compound S-9, N-(Phenyl)-N-(2-thioethyl-ethyl)alanine sodium salt], for which the Fog in assay [1] (0.22 x10^-3 mole/mole Ag) turned out to be 0.21; in assay [1] (0.44 x10^-3 mole/mole Ag), 0.41; in assay [1] (0.88 x10^-3 mole/mole Ag), 0.63. Besides, the S365 in assay [1] (0.22 x10^-3 mole/mole Ag) amounted to 129; in assay [1] (0.44 x10^-3 mole/mole Ag), 102. In assay [1], the “fog change” value is reported as “modest increases in fog”.

For the molecule `CCSCCN(c1cccc(C(N)=O)c1)C(C)C(=O)O` (centres unmarked) [Compound S-13], the Fog in assay [1] (0.22 x10^-3 mole/mole Ag) is on record as 0.10; in assay [1] (0.44 x10^-3 mole/mole Ag), 0.13; in assay [1] (0.88 x10^-3 mole/mole Ag), 0.14; in assay [3] (0.007 x10^-3 mol/mol Ag), 0.13; in assay [3] (0.022 x10^-3 mol/mol Ag), 0.20; in assay [2] (0.22 x10^-3 mol/molAg), 0.10. For the same molecule, the Fog in assay [2] (0.44 x10^-3 mol/molAg) was found to be 0.16. In addition, the S365 in assay [1] (0.22 x10^-3 mole/mole Ag) is given as 151; in assay [1] (0.44 x10^-3 mole/mole Ag) it was 151; in assay [1] (0.88 x10^-3 mole/mole Ag), 166; in assay [3] (0.007 x10^-3 mol/mol Ag) it was 95; in assay [3] (0.022 x10^-3 mol/mol Ag), 102. The “365 nm sensitivity of dyed emulsion” value in assay [3] is given as “restored to that of the undyed emulsion”. In addition, the “Photographic Sensitivity SWR2B” value turned out to be 204 in assay [2] (0.22 x10^-3 mol/molAg) and 209 in assay [2] (0.44 x10^-3 mol/molAg).
